# Data as given in publication PMC4418665, “Cyclization of the Urokinase Receptor-Derived Ser-Arg-Ser-Arg-Tyr Peptide Generates a Potent Inhibitor of Trans-Endothelial Migration of Monocytes” (PLoS ONE, 2015).
# Peptide text beside a SMILES is read from it.
# Tested on: RBL-2H3/ETFR cells
# Test: RBL-2H3/ETFR cell migration, xCELLigence RTCA
# Format: cell-based, rat
# Details: 4 hours, Cell Index, quadruplicate
# Description: We have previously documented that SRSRY competes with the bacterial-derived N-formyl-methionyl-leucyl-phenylalanine peptide (fMLF) for binding to FPR type 1 (FPR1) and that both SRSRY and fMLF promote cell migration by triggering FPR1 internalization. […] Quantification of cell-associated fluorescence was assessed by reading cell lysates with a fluorescence plate reader. RBL-2H3 cells lack FPR1, thus they display very low uptake that was not saturable with unlabeled fMLF (Fig 2A). […] To evaluate the effect of [SRSRY] on agonist-dependent FPR1 internalization, binding experiments were performed at 37°C. […] Thus, we assessed whether [SRSRY] elicits effects on fMLF-directed cell migration. RBL-2H3/ETFR cell migration toward 10 nM fMLF was monitored in real-time for 4 hours as Cell Index changes due to the adhesion of migrating cells to microelectrodes using the xCELLigence RTCA technology as previously described. […]
# Fig 2 Both linear and cyclic SRSRY peptides bind to FPR1. […] Fluorimetric measurement of cell-associated fluorescence was assed using 485 nm excitation and 535 nm emission filters. Data are expressed as a percentage of the fluorescence associated to RBL-2H3 cells exposed to FITC-fMLF alone (CTL = 100%) and represent a mean ± SD from triplicates. *Statistical significance (t-test) against None with p<0.001. […] Cell migration of RBL-2H3/ETFR cells monitored by the xCELLigence system. […]
smiles,measurement,setting,value
"N=C(N)NCCC[C@@H]1NC(=O)[C@H](CO)NC(=O)[C@H](Cc2ccc(O)cc2)NC(=O)[C@H](CCCNC(=N)N)NC(=O)[C@H](CO)NC1=O [[SRSRY], [Ser-Arg-Ser-Arg-Tyr]] (cyclo(RSRYS))",RBL-2H3/ETFR cell migration toward 10 nM fMLF in presence of peptide,10 nM fMLF mixed with 10 nM peptide,reduced to the basal level
same,RBL-2H3/ETFR cell migration toward the peptide alone,10 nM peptide in lower chamber,cell migration did not change significantly
